Source: patent publication US6489475B2, “Method of producing heterocyclic derivatives” (Sankyo Company, Limited, priority 1994, dated 2002)
Marks after values point to notes of the source that are not given here.

Legend:
[1] = tested on: Male Wister rats; assay: Serum total cholesterol reducing effect in rats on high cholesterol feed; type: in vivo; conditions: dose 30 mg/kg/day, oral, once a day for 3 days, rat
Experimental: Serum Total Cholesterol Reducing Effect
Male Wister rats weighing 180-200 g were bred under free access to a high cholesterol feed [added with cholesterol (1%), cholic acid (0.5%) and coconut oil (10%), Clea Japan, Inc.] for 3 days, during which period a test compound (10-100 mg/kg) suspended in 5% gum arabic solution was forcibly administered once a day orally for 3 days. Only 5% gum arabic solution was administered to control animals. After final administration, the test animals were fasted for 5 hours and the blood was taken. The serum total cholesterol level was determined using a commercially available assay kit (cholesterol-E-Test Wako, Wako Pure Chemical Industries, Ltd.). The activity of the test compound was expressed as a proportion (%) of reduction of serum total cholesterol level, namely, the proportion of reduction of serum total cholesterol as compared to control.

[2] = tested on: plasma; assay: Plasma lipoperoxidation inhibitory effect (copper sulfate, malondialdehyde by thiobarbituric acid method); type: biochemical, rabbit; conditions: concentration 10^-5M; 37°C, 3 hours; malondialdehyde production inhibitory ratio
Experimental: Plasma Lipoperoxidation Inhibitory Effect
The blood was taken from male Japanese white rabbits weighing 2-2.5 kg under anesthesia and heparinized plasma was separated by a conventional method. To the plasma (2.0 ml) was added DMSO or a solution (20 μl, final concentration 10^−5 M) of test compound dissolved in DMSO, and aqueous copper sulfate solution (final concentration 5 mM) was added immediately thereafter. The mixture was incubated at 37° C. for 3 hours. After the completion of the incubation, 20% trichloroacetic acid was added to stop the reaction. Then, the mixture was centrifuged at 4° C., 4,500 rpm for 15 minutes. The lipoperoxide in the supernatant thus obtained was assayed as malondialdehyde upon color development by thiobarbituric acid method. The activity of the test compound was expressed as malondialdehyde production inhibitory ratio (%), namely, the proportion of inhibition of production of malondialdehyde as compared to control.

[3] = tested on: ACAT; assay: ACAT inhibitory activity (small intestine mucosa microsomes, [1-14C]-oleoyl CoA, cholesteryl oleate production); type: biochemical, rabbit; conditions: inhibition of cholesteryl oleate production vs control
Experimental: A high cholesterol feed [a feed added with cholesterol (1%), Clea Japan, Inc.] was fed to male Japanese white rabbits weighing 2-2.5 kg at 100 g per day and the rabbits were bred for 4 weeks. The rabbits were killed by bleeding under anesthesia and small intestine was removed. The mucous membrane of small intestine was peeled, collected and homogenated. The homogenate was centrifuged at 4° C. and 10,000 rpm for 15 min. The obtained supernatant was further centrifuged at 4° C. and 41,000 rpm for 30 minutes to give microsomal fractions. Using this microsomal suspension as an enzyme sample, dimethyl sulfoxide (DMSO, 5 μl) or a test compound dissolved in DMSO (test compound solution, 5 μl), and a reaction substrate [1-^14C]-oleoyl CoA were added to a reaction buffer. After incubation at 37° C. for 5 minutes, a chloroform-methanol mixture was added to stop the reaction. Water was added thereto and mixed, and chloroform layer was separated. The solvent was evaporated to dryness, and the residue was dissolved in hexane. The mixture was subjected to thin layer chromatography using a silica gel plate. The spots of cholesteryl oleate on the silica gel plate were scraped, and quantitatively assayed on a liquid scintillation counter. The ACAT inhibitory activity of the test compound was expressed as a proportion (%) of inhibition of cholesteryl oleate, namely, the proportion of inhibition of cholesteryl oleate production as compared to control.

[4] = tested on: LDL; assay: LDL peroxidation inhibitory effect (copper sulfate, malondialdehyde by thiobarbituric acid method); type: biochemical, rabbit; conditions: concentration 10^-5M; 37°C, 24 hours; malondialdehyde production inhibitory ratio
Experimental: LDL Peroxidation Inhibitory Effect
Male Japanese white rabbits weighing 2-2.5 kg were bred on 100 g per day of a high cholesterol feed [added with cholesterol (1%), Clea Japan, Inc.] for 4 weeks. The blood was taken from carotid and plasma was obtained. Then, LDL was fractionated from the plasma by ultracentrifugation, dialyzed for one day and preserved at 4° C. LDL (400 μg) and aqueous copper sulfate solution (final concentration 5 μM) were added to bufferized Ham F-10 medium (2 ml, GIBCO, USA). DMSO or a solution (20 μl) of test compound dissolved in DMSO was added and the mixture was incubated at 37° C. for 24 hours. After the completion of the incubation, LDL peroxide in medium was allowed to develop color by thiobarbituric acid method and assayed as malondialdehyde. The activity of the test compound was expressed as malondialdehyde production inhibitory ratio (%), namely, the proportion of inhibition of production of malondialdehyde as compared to control.

Structure (SMILES): Cc1cc(C)c(NC(=O)C(C)(C)C)c2c1CCN2CCCCCC(=O)O [Example 26]
- Result of Exp. Ex. 2: reduction of serum total cholesterol [1]: 37.4 ** %
- Result of Exp. Ex. 4: plasma lipoperoxidation inhibition [2]: 90.1%
- Result of Exp. Ex. 1: ACAT inhibition ([3]; concentration 10^-5M): 26.5 ** %
- Result of Exp. Ex. 3: LDL peroxidation inhibition [4]: 43.3%

Structure (SMILES): CCCCCCN1CCc2c(C)cc(C)c(NC(=O)CC(C)(C)CC(=O)O)c21 [Example 18]
- Result of Exp. Ex. 2: reduction of serum total cholesterol [1]: 22.3 ** %
- Result of Exp. Ex. 4: plasma lipoperoxidation inhibition [2]: 87.1%
- Result of Exp. Ex. 1: ACAT inhibition ([3]; concentration 10^-4M): 69.6 * %
- Result of Exp. Ex. 3: LDL peroxidation inhibition [4]: 34.0%

Structure (SMILES): CCCCN1CCc2c(C)cc(C)c(NC(=O)C(C)(C)CCCC)c21 [Example 9]
- Result of Exp. Ex. 2: reduction of serum total cholesterol [1]: 51.3 ** %
- Result of Exp. Ex. 4: plasma lipoperoxidation inhibition [2]: 81.6%
- Result of Exp. Ex. 1: ACAT inhibition ([3]; concentration 10^-5M): 81.3 ** %
- Result of Exp. Ex. 3: LDL peroxidation inhibition [4]: 93.7%
